Source: patent US20220030850A1, “CRYOPRESERVATIVE COMPOSITIONS AND METHODS” (REGENTS OF THE UNIVERSITY OF MINNESOTA, priority 2015, published 2022)

Tests used:
mesenchymal stem cells = test: 96-well plate freezing, post-thaw scaled raw recovery (calcein-AM/PI); format: cell-based, human; settings: 10% DMSO at 1° C./min, control
Description: FIG. 2 and FIG. 3 relate to a three-component TGE solution tested with Jurkat cells. […] These components were selected based on pre-screening experiments performed to identify combinations with high potential recovery. The DE algorithm was programmed to output 27 vector solutions per generation with a weight=0.85 and a crossover=1. Experimental testing and result normalization was similar to the methods described above.
In both screening and DE algorithm experiments, cells were frozen in 96-well plates to limit the number of cells and volumes of reagent necessary, and to increase the number of samples that could be tested at one time. Solutions were made at 2× their final concentration in distilled H2O (diH2O). […]
After 96 well plates were thawed, calcein-acetoxymethyl (AM)/propidium iodide was added to each well and the wells were covered from light and placed in a 37° C. incubator for 30 minutes to allow the live cells to cleave calcein-AM. The plates were then analyzed for fluorescence on a plate reader. Raw fluorescence values were used to calculate the number of live and dead cells present in each well by correlating to a control curve of unfrozen cells. The live cell recovery was calculated by dividing the number of live cells present in thawed samples (calcein-AM plate reader fluorescence) by the number of live cells seeded pre-freeze (AO/PI counts). […]

[1] = 10% DMSO solution; cited from earlier work
MSCs = test: High throughput factorial screening with Linear Mixed Effects statistical analysis of recovery; format: cell-based, human; settings: statistical analysis of sugar and cooling rate
Procedure: (§1) In another evaluation, cells were combined with factorial combinations of the components listed in Table 5, using one component from each category. Plates including cells and solutions were frozen at cooling rates of 1′C/min, 3′C/min, 5′C/min, or 10′C/min.
(§2) Recovery was calculated by dividing the number of live cells post thaw—calculated using a control curve correlating calcein-acetoxymethyl (AM) fluorescence to cell count—by the number of live cells seeded pre-freeze (AO/PI counts taken prior to freezing). Recovery was normalized by dividing by the DMSO recovery on each plate, then multiplying by a standard DMSO recovery for each cooling rate. This normalized recovery was used to compare samples between different plates and different cooling rates.
(§3) Statistical analysis of the data was performed using a Linear Effects Model. The model associated with best fit was determined using Bayesian Information Criteria. […] The ten best combinations for Jurkats are summarized in Table 6 below, while the eight best combinations for MSCs are summarized in Table 7.
To assess the importance of the four explanatory variables of interest (Sugar, Rate, Additive and Alcohol), without neglecting the variation between each batch and between each plate within the batches, we sought to find the best Linear Mixed Effects (LME) model. With yi the i'th outcome of the response, Xi the corresponding values of the covariates, the LME model is defined as
To select the most fitting model, we performed backward elimination based on the Bayesian Information Criterion (BIC) starting with a model that includes all variables and second order interactions. Furthermore, we included two random variables, one to catch the effect of the batch, and one to catch the effect of each plate within the batch—i.e., the full model is: […]

Jurkat cells = test: as above; format: cell-based; settings: statistical analysis of sugar and cooling rate
Procedure: as §1, §2, §3
High throughput factorial screening experiments were performed on a Biomek Beckman FX 96 liquid handling robot. Briefly, 12.5 μl of an array of additives were transferred to nine 96-well plates containing 12.5 μl of different sugar alcohols. Cells (25 μl) diluted in either a sugar (in a solution of NORMOSOL-R; Hospira, Inc., Lake Forest, L) or a NORMOSOL-R blank solution were transferred to these nine plates to give a final volume of 50 μl in each well. Cells suspended in […] in media were also included as a row of each plate to serve as normalization wells for plate-to-plate comparison.
When all plate volume transfers were complete, silicone plate covers were used to seal each plate, and plates were transferred to a controlled rate freezer (Kryo 10 Series III, Planer PLC, Middlesex, United Kingdom) and frozen at cooling rates ranging from 1° C./min to 10° C./min. The concentrations of components present in solution are listed in Table 11, and were selected based on values described in literature or solubility limits. Component concentrations were 0 if not listed in a solution.
Plate samples were also assessed for viability using fluorescence. Briefly, a solution of calcein-AM/propidium iodide was prepared and a volume of 50 μl was added to each sample well of experimental 96-well plates, producing a 1:1 dilution. Plates were protected from light and placed in an incubator for 30 minutes to allow for calcein-AM digestion. A fluorescent plate reader (Synergy HT, BioTek Instruments, Inc., Winooski, Vt.) was used to determine the fluorescence in each well, which was correlated to live and dead cell counts using a control curve.
Viability was calculated for all samples by dividing the number of live cells by the number of total cells. Recovery was calculated directly by dividing the number of live cells post thaw by the number of live cells pre-freeze. Recovery for 96-well plate samples was further normalized; each experimental sample recovery was divided by the DMSO recovery on the same plate, and then multiplied by the standard DMSO recovery for the cooling rate of each experiment.
To assess the importance of the four explanatory variables of interest (Sugar, Rate, Additive and Alcohol), without neglecting the variation between each batch and between each plate within the batches, we sought to find the best Linear Mixed Effects (LME) model. […]

SMILES	recovery for MSCs (mesenchymal stem cells) [%]	osmolarity [1] [mOsm]	cooling rate at which cells performed better with the sugar (MSCs)	cooling rate at which cells performed better with the sugar (Jurkat cells)
C[S+](C)[O-] [DMSO, dimethyl sulfoxide]	21	~1400		
OC[C@H]1O[C@@](CO)(O[C@H]2O[C@H](CO)[C@@H](O)[C@H](O)[C@H]2O)[C@@H](O)[C@@H]1O [Sucrose]			3 °C and 5° C./min	10 °C and 1° C./min
